Test results from patent US7335355B2, “Antimicrobial agent” (Hansa Medical AB, priority 2000, dated 2008).
Like-named read-outs stand apart in the source and are kept apart here.

What was measured:
LL-37 = target: T1, LL-37 (Homo sapiens, UniProt P49913); assay: Slot-binding assay: iodinated dermatan sulphate (DS36) binding to LL-37 on nitrocellulose, competition; conditions: LL-37 0.2-5 μg on nitrocellulose
T1 sequence (P49913 134-170 limits assumed): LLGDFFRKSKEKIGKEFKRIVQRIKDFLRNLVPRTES
Protocol: LL-37 (0.2-5 μg) was applied onto nitrocellulose and incubated with iodinated dermatan sulphate (DS36). Different polysaccharides were added for competition of binding. DS36, DS18, DS13 (dermatan sulphate 36, 18, and 13), CS4 and CS6 (chondroitin sulphate 4 and 6), CS-D (chondroitin sulphate D) and CS-E (chondroitin sulphate E).
LL-37 (0.2-5 μg) was applied onto nitrocellulose and incubated with iodinated dermatan sulphate (DS36). Different cationic substances, as indicated on top of the various panels, were added for competition of binding. (a), p-1-lys; poly-L-lysine, p-1-arg; poly-L-arginine, DEAE; DEAE-dextran, PB; polybrene. (b), CH; chitosan, PEI, polyethyleneimine, PM; protamine, PMX; polymyxin B, PMXnp; polymyxin B nonapeptide.
Radioiodination of DS36 was performed according to previous protocols (F Cheng, K. Yoshida, D. Heinegard, L. Å. Fransson, Glycobiology, 2, 553 (1992)). Slot-binding assays were carried out as follows: α-defensin peptide I (Bachem, Switzerland) was blotted onto nitrocellulose membranes (Hybond, Amersham). Membranes were blocked (PBS, pH 7.4, 0.25% Tween 20, 3% bovine serum albumin) for 1 h and incubated with radiolabelled DS (˜20 μl/ml) for 1 h in the same buffer. Unlabelled polysaccharides were added for competition of binding (2 mg/ml). The membranes were washed (3×10 min) (PBS, pH 7.4, 0.25% Tween 20). Bas 2000 radioimaging system (Fuji) was used for visualization of radioactivity.
LL-37 (0.2-5 μg) was applied onto nitrocellulose and incubated with iodinated dermatan sulphate (DS36). Different polysaccharides were added for competition of binding: DS36, DS18, DS13, CS-4, CS-6, CS-D (chondroitin sulphate D) and CS-E (chondroitin sulphate E). […] Radiolabelled DS was, however, displaced by DS-36, DS18, DS13 and CS-E.
The effects of various cationic molecules on the DS-LL-37 interaction were monitored using slot-blot assays as described in Example 2. DS binding to LL-37 was blocked by poly-L-lysine, poly-L-arginine, DEAE-dextran, polybrene, chitosan and polyethyleneimine.

α-defensin 1 = target: T2, α-defensin 1 (Homo sapiens, UniProt P59665); assay: Slot-binding assay: radioiodinated DS binding to blotted α-defensin 1, competition by unlabelled polysaccharides; conditions: unlabelled polysaccharide 2 mg/ml, ~100-fold excess
T2 construct: purchased Bachem, Switzerland
T2 sequence (P59665 65-94 limits assumed): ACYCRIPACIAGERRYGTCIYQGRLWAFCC
Protocol: 0.2-5 μg α-defensin 1 was blotted onto nitrocellulose and probed with radioiodinated dermatan sulfate (DS).

S. pyogenes = assay: Anti-microbial assay (CFU) with α-defensin 1 with or without GAG chains; conditions: 2 h, 37° C.
P. aeruginosa = assay: as above; format: cell-based, Pseudomonas aeruginosa; conditions: 4 h, 37° C.
E. faecalis [1] = assay: as above; conditions: 2 h, 37° C.
Protocol: FIG. 1A illustrates the killing of bacteria by α-defensin. 2×10^6 CFU/ml of S. pyogenes (□) E. faecalis (●) and P. aeruginosa (◯) were incubated with α-defensin at the indicated peptide concentrations for 2 h (S. pyogenes and E. faecalis) or 4 h (P. aeruginosa) at 37° C., and CFU were determined.
For anti-microbial assays S. pyogenes, E. faecalis and P. aeruginosa were grown to mid-log phase in TH-medium. Bacteria were washed and diluted in 10 mM Tris-HCl, pH 7.5, containing 5 mM glucose. 50 μl bacteria (2×10^6 cfu/ml) were incubated with α-defensin at concentrations ranging from 0-40 μg/ml with or without the addition of various GAG chains at concentrations of 2-400 μg/ml. Incubations were carried out at 37° C. for 2 h (S. pyogenes and E. faecalis) or 4 h (P. aeruginosa). To quantitate the microbicidal activity serial dilutions of the incubation mixture were plated on TH agar, incubated at 37° C. over night and the number of CFU were determined.

[2] = target: T3, S. pyogenes cysteine proteinase (Streptococcus pyogenes, UniProt P0C0J0)
[3] = target: T3, S. pyogenes cysteine proteinase; remark: listed apart in the source
Target sequence in this assay (P0C0J0 146-398 limits assumed): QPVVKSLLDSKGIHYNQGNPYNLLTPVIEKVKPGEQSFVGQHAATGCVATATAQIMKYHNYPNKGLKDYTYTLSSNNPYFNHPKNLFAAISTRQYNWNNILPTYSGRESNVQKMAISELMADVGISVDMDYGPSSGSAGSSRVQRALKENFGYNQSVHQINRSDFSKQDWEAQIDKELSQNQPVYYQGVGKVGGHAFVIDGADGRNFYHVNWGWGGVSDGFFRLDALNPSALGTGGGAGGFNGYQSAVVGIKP

E. faecalis gelatinase [4] = target: T4, E. faecalis gelatinase (Enterococcus faecalis, UniProt Q833V7); format: biochemical; conditions: 6 mU gelatinase, 1 hour
T4 construct: The E. faecalis strain contained gelatinase and supernatants were used directly; made in house; host or cells: Enterococcus faecalis isolate from a chronic venous wound (natural producer); unpurified culture supernatant

P. aeruginosa elastase = conditions: 1 hour; for Inhibition of LL-37 degradation by P. aeruginosa elastase: 12 mU elastase; for Inhibition of LL-37 degradation by P. aeruginosa elastase by sulphated saccharides: 1 μg LL-37, 12 mU elastase, 15 μl 10 mM Tris-buffer
E. faecalis [5] = assay: Bactericidal assay of LL-37 after incubation with P. aeruginosa elastase; format: cell-based, Enterococcus faecalis; conditions: 0.1 μg LL-37, E. faecalis 2×10^6 cfus/ml, 2 h, 37° C.
E. faecalis gelatinase [6] = target: T5, E. faecalis gelatinase (Enterococcus faecalis, UniProt Q833V7); format: biochemical; conditions: 1 μg LL-37, 3 mU, 1 hour and 6 hours
T5 construct: The E. faecalis strain contained gelatinase and supernatants were used directly; made in house; host or cells: Enterococcus faecalis isolate from a chronic venous wound (natural producer); unpurified culture supernatant
T5 sequence (Q833V7 whole entry, looked up): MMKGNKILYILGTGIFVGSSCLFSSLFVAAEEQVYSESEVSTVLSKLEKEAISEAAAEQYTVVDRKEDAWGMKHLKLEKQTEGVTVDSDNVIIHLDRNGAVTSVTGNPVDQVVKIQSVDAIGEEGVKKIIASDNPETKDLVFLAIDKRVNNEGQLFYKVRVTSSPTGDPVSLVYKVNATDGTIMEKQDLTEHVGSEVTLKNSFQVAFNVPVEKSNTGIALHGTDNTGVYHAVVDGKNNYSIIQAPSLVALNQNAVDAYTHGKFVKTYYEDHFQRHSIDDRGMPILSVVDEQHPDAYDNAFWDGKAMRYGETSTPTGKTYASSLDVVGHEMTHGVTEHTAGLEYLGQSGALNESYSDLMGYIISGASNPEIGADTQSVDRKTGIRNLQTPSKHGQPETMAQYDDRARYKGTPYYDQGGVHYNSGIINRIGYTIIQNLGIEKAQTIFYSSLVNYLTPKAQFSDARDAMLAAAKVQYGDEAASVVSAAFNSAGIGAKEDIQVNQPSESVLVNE

## polybrene
LL-37
  Effect of cationic molecules on DS binding to LL-37: blocked

## dextran
α-defensin 1
  Competition of radiolabelled DS binding to α-defensin 1 by unlabelled polysaccharide: not

## poly-L-lysine
LL-37
  Effect of cationic molecules on DS binding to LL-37: blocked

## α-defensin 1: cationic antimicrobial peptide α-defensin (SEQ ID NO: 2), from Bachem
S. pyogenes
  α-defensin 1 concentration at which bacteria were effectively killed: ≥ 4 µg/mL
P. aeruginosa
  α-defensin 1 concentration at which bacteria were effectively killed: ≥ 4 µg/mL
E. faecalis [1]
  α-defensin 1 concentration at which bacteria were effectively killed: ≥ 4 µg/mL

## polyethyleneimine
LL-37
  Effect of cationic molecules on DS binding to LL-37: blocked

## DEAE-dextran
LL-37
  Effect of cationic molecules on DS binding to LL-37: blocked

## protamine [reference compound]
LL-37
  Effect of cationic molecules on DS binding to LL-37: Reduced levels of binding

## dextran sulfate
α-defensin 1
  Competition of radiolabelled DS binding to α-defensin 1 by unlabelled polysaccharide: displaced the radiolabelled DS

## Polymyxin B [reference compound]
LL-37
  Effect of cationic molecules on DS binding to LL-37: did not block the binding

## CC(C)C[C@H](NC(=O)[C@H]1O[C@@H]1C(=O)O)C(=O)NCCCCN=C(N)N [E64]
[2]
  Inhibition of LL-37 degradation by S. pyogenes cysteine proteinase: Degradation was abolished
[3]
  Effect on degradation of decorin and high molecular weight proteoglycans by S. pyogenes extracellular products: completely blocked the effect
  Effect on degradation of decorin by S. pyogenes cysteine proteinase: abolished degradation

## poly-L-arginine
LL-37
  Effect of cationic molecules on DS binding to LL-37: blocked

## polymyxin B nonapeptide [reference compound]
LL-37
  Effect of cationic molecules on DS binding to LL-37: did not block the binding

## heparin [reference compound]
α-defensin 1
  Competition of radiolabelled DS binding to α-defensin 1 by unlabelled polysaccharide: displaced the radiolabelled DS

## CNC(=O)[C@H](Cc1c[nH]c2ccccc12)NC(=O)[C@@H](CC(=O)NO)CC(C)C [GM6001, reference compound]
E. faecalis gelatinase [4]; inhibitor 100 μM
  Inhibition of LL-37 degradation by E. faecalis gelatinase: Degradation was abolished
P. aeruginosa elastase; inhibitor 100 μM
  Inhibition of LL-37 degradation by P. aeruginosa elastase: Degradation was abolished

## c1cnc2c(c1)ccc1cccnc12 [1,10-phenantroline, reference compound]
E. faecalis gelatinase [4]; inhibitor 2 mM
  Inhibition of LL-37 degradation by E. faecalis gelatinase: Degradation was abolished
P. aeruginosa elastase; inhibitor 2 mM
  Inhibition of LL-37 degradation by P. aeruginosa elastase: Degradation was abolished

## CC(=O)NC1C(O)OC(COS(=O)(=O)O)C(OS(=O)(=O)O)C1OC1OC(C(=O)O)=CC(O)C1OS(=O)(=O)O [ΔUA(2S)-GalNAc(4,6S)]
P. aeruginosa elastase
  Inhibition of LL-37 degradation by P. aeruginosa elastase by sulphated saccharides: inhibited the degradation

## LL-37: cationic antimicrobial peptide LL-37 (SEQ ID NO: 1)
E. faecalis [5]
  Bactericidal activity of LL-37 after incubation with P. aeruginosa elastase: inactivated
E. faecalis gelatinase [6]
  Degradation of LL-37 by E. faecalis gelatinase: degradation of LL-37 by bacterial proteinases
[2]
  Degradation of LL-37 by S. pyogenes cysteine proteinase: degradation of LL-37 by bacterial proteinases

## O=S(=O)(O)OC[C@H]1O[C@@](COS(=O)(=O)O)(O[C@H]2O[C@H](COS(=O)(=O)O)[C@@H](OS(=O)(=O)O)[C@H](OS(=O)(=O)O)[C@H]2OS(=O)(=O)O)[C@@H](OS(=O)(=O)O)[C@@H]1OS(=O)(=O)O [sucroseoctasulphate]
P. aeruginosa elastase
  Inhibition of LL-37 degradation by P. aeruginosa elastase by sulphated saccharides: inhibited the degradation

## chitosan
LL-37
  Effect of cationic molecules on DS binding to LL-37: blocked
